Assay results: EP4640052A1 (BASF SE, priority 2024, dated 2025)
Where “and” joins values, the source holds several entries; their conditions need not be identical. Identical values can stand only once.

Columns and labels:
[1] = test system: Alternaria solani (ALTESO); experiment: microbe, parasite or virus in culture; assay type: cell-based
[2] = test system: Pyricularia oryzae (PYRIOR); experiment: microbe, parasite or virus in culture; assay type: cell-based; settings: for Observed efficacy: single active
[3] = test system: Pyrenophora teres (PYRNTE), Qol resistant (F129L); experiment: microbe, parasite or virus in culture; assay type: cell-based; settings: for inhibition of growth at 0.016 ppm / inhibition of growth at 0.063 ppm / inhibition of growth at 0.25 ppm / inhibition of growth at 1 ppm: Pyrenophora teres, 168 h, read-out: Observed efficacy
[4] = test system: Puccinia triticina (syn. P. recondita); experiment: Green house use example 9: curative control of brown rust on wheat (PUCCRT K4); assay type: in vivo
Monilinia sp. (MONISP) = experiment: microbe, parasite or virus in culture; assay type: cell-based
[5] = test system: Sclerotinia sclerotiorum (SCLESC); experiment: microbe, parasite or virus in culture; assay type: cell-based; settings: for inhibition of growth at 0.063 ppm / inhibition of growth at 1 ppm / inhibition of growth at 0.016 ppm / inhibition of growth at 0.25 ppm: Sclerotinia sclerotiorum, 168 h, read-out: Observed efficacy
[6] = test system: Septoria tritici (SEPTTR); experiment: microbe, parasite or virus in culture; assay type: cell-based; settings: Zymoseptoria tritici, 168 h, read-out: Observed efficacy
[7] = test system: Puccinia triticina (syn. P. recondita); experiment: Green house use example 10: preventative control of brown rust on wheat (PUCCRT P10); assay type: in vivo; settings: wheat, sprayed 10 days before inoculation; single active, 2 ppm
Phakopsora pachyrhizi = experiment: Green house use example 13: curative control of soybean rust on soybeans (PHAKPA F129L K4); assay type: in vivo
[8] = test system: Blumeria graminis f. sp. tritici; experiment: Green house use example 11: control of powdery mildew on wheat, sprayed 2 days after inoculation (ERYSGT K2); assay type: in vivo; settings: G143A strain, single active, 16 ppm
[9] = Alternaria solani, 168 h, read-out: Observed efficacy
[10] = Monilinia, 168 h, read-out: Observed efficacy
[11] = Pyricularia oryzae, 168 h, read-out: Observed efficacy
[12] = Trial 2, single compound, 1 ppm

Compound | inhibition of growth at 0.063 ppm [1, 9] [%] | inhibition of growth at 0.063 ppm (Monilinia sp. (MONISP); [10]) [%] | inhibition of growth at 0.063 ppm [5] [%] | inhibition of growth at 1 ppm [5] [%] | inhibition of growth at 0.016 ppm [2, 11] [%] | inhibition of growth at 0.063 ppm [2, 11] [%] | inhibition of growth at 1 ppm [2, 11] [%] | inhibition of growth at 0.016 ppm [3] [%] | inhibition of growth at 0.063 ppm [3] [%] | inhibition of growth at 0.25 ppm [3] [%] | inhibition of growth at 1 ppm [3] [%] | inhibition of growth at 0.016 ppm [1, 9] [%] | inhibition of growth at 0.063 ppm [6] [%] | inhibition of growth at 0.25 ppm [6] [%] | inhibition of growth at 0.016 ppm [5] [%] | inhibition of growth at 0.25 ppm [1, 9] [%] | further results
CC(O)(Cn1cncn1)c1ccc(Oc2ccc(Cl)cc2)cc1C(F)(F)F (racemic) [mefentrifluconazole, reference compound] |  |  |  |  |  |  |  |  |  |  |  |  |  |  |  |  | Observed efficacy [1]: 27; Observed efficacy ([2]; 0.063 ppm): 0%; Observed efficacy ([2]; 1 ppm): 53%; Observed efficacy [3]: 40 and 22; Observed efficacy ([4]; 1 ppm): 39; Observed efficacy ([4]; 4 ppm): 54
CO/C=C(/C(=O)OC)c1cccc(Br)c1CO/N=C(\COC)c1ccccc1 [I.2, Methyl (E)-2-[3-bromo-2-[[(Z)-(2-methoxy-1-phenyl-ethylidene)amino]oxymethyl]-phenyl]-3-methoxy-prop-2-enoate] | 36 | 18 | 7 | 41 | 0 | 0 | 31 | 7 | 34 | 44 | 60 |  |  |  |  |  | inhibition of growth at 0.001 ppm (Monilinia sp. (MONISP); [10]): 0%; inhibition of growth at 0.016 ppm (Monilinia sp. (MONISP); [10]): 0%
CO/C=C(/C(=O)OC)c1cccc(C)c1CO/N=C(\COC)c1ccccc1 [I.3, Methyl (E)-3-methoxy-2-[2-[[(Z)-(2-methoxy-1-phenyl-ethylidene)amino]oxymethyl]-3-methyl-phenyl]prop-2-enoate] | 59 | 51 | 3 |  | 33 |  |  | 26 | 43 | 51 | 62 | 32 | 21 | 49 | 0 |  | inhibition of growth at 0.004 ppm [1, 9]: 11%; inhibition of growth at 0.016 ppm [6]: 0%; inhibition of growth at 0.25 ppm [5]: 2%
CO/C=C(/C(=O)OC)c1cccc(C)c1CO/N=C(\COC)c1ccc(F)cc1 [I.4, Methyl (E)-2-[2-[[(Z)-[1-(4-fluorophenyl)-2-methoxy-ethylidene]amino]oxymethyl]-3-methyl-phenyl]-3-methoxy-prop-2-enoate] | 50 |  | 0 | 41 | 28 |  |  |  | 39 |  | 64 |  | 16 | 43 | 0 |  | Observed efficacy [7]: 12; Observed efficacy (Phakopsora pachyrhizi; Trial 1, single compound, 2 ppm): 36; Observed efficacy [4, 12]: 49
CO/C=C(/C(=O)OC)c1cccc(Cl)c1CO/N=C(\COC)c1ccc(F)cc1 [I.5, Methyl-(E)-2-[3-chloro-2-[[(Z)-[1-(4-fluorophenyl)-2-methoxy-ethylidene]amino]-oxy¬imethyl]phenyl]-3-methoxy-prop-2-enoate] |  |  |  |  |  |  |  |  |  |  |  |  |  |  |  |  | Observed efficacy (Monilinia sp. (MONISP)): 56; Observed efficacy [5]: 0; Observed efficacy ([2]; 0.063 ppm): 28%
CO/C=C(/C(=O)OC)c1cccc(Cl)c1CO/N=C(\COC)c1ccc(F)cc1F [I.6, Methyl (E)-2-[3-chloro-2-[[(Z)-[1-(2,4-difluorophenyl)-2-methoxy-ethylidene]amino]-oxymethyl]phenyl]-3-methoxy-prop-2-enoate] | 18 | 7 | 5 | 47 | 0 | 0 | 24 | 2 | 27 | 42 | 54 | 10 |  |  | 4 | 34 | inhibition of growth at 0.016 ppm (Monilinia sp. (MONISP); [10]): 10%; inhibition of growth at 0.004 ppm [2, 11]: 0%
CO/C=C(/C(=O)OC)c1cccc(F)c1CO/N=C(\COC)c1c(F)cc(F)cc1F [I.8, Methyl (E)-2-[3-fluoro-2-[[(Z)-[2-methoxy-1-(2,4,6-trifluorophenyl)ethylidene]amino]-oxymethyl]phenyl]-3-methoxy-prop-2-enoate] | 0 |  | 0 |  | 0 | 0 | 18 | 1 | 14 | 20 | 44 | 2 |  |  |  | 4 | inhibition of growth at 1 ppm [1, 9]: 59%; inhibition of growth at 0.25 ppm (Monilinia sp. (MONISP); [10]): 42%; inhibition of growth at 0.25 ppm [2, 11]: 2%
CO/C=C(/C(=O)OC)c1cccc(C)c1CO/N=C(\COC)c1c(F)cc(F)cc1F [I.10, Methyl (E)-3-methoxy-2-[2-[[(Z)-[2-methoxy-1-(2,4,6-trifluorophenyl)ethylidene]-amino]oxymethyl]-3-methyl-phenyl]prop-2-enoate] | 0 |  | 3 |  |  | 43 |  | 15 | 40 |  | 65 | 0 | 0 | 26 | 0 | 0 | Observed efficacy [8]: 7; inhibition of growth at 1 ppm [6]: 55%; Observed efficacy (Phakopsora pachyrhizi; [12]): 13; Observed efficacy (Phakopsora pachyrhizi; Trial 2, single compound, 4 ppm): 22; Observed efficacy (Phakopsora pachyrhizi; Trial 3, single compound, 4 ppm): 32; inhibition of growth at 0.25 ppm [5]: 13%; Observed efficacy ([4]; Trial 1, single compound, 1 ppm): 3; Observed efficacy ([4]; Trial 1, single compound, 4 ppm): 14
